pIC50: −log10 of the molar value.
What was measured:
Type in all cases: cell-based
[1] = tested on: SNU-16 (FGFR2-amplification) cells; assay: cell proliferation assay (CellTiterGlo), SNU-16 cells; conditions: Homo sapiens, 72 hours
Summary of the method: (§1)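 IC50 for growth inhibition, normalized to DMSO-treated cells as viable. Cell number was estimated from ATP luminescence (CellTiterGlo) following incubation with compound at varying concentrations.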

[2] = tested on: UM-UC-14 (FGFR3-S249C) cells; assay: cell proliferation assay (CellTiterGlo), UM-UC-14 cells; conditions: UMUC14, 72 h
Summary of the method: as §1

[3] = tested on: DMS-114 (FGFR1 overexpression) cells; assay: cell proliferation assay (CellTiterGlo), DMS-114 cells; conditions: Homo sapiens, DMS-114, 72 h
Summary of the method: as §1

[4] = tested on: RT-112 (FGFR3-Tacc3 fusion) cells; assay: cell proliferation assay (CellTiterGlo), RT-112 cells; conditions: Homo sapiens, RT-112, RT112 cells, 72 hours
Summary of the method: as §1

Structure (SMILES)	pIC50 [1]	pIC50 [2]	pIC50 [3]	pIC50 [4]
Cc1nc2ccc(Oc3ccc4ncc(-c5cnn(C6CC(N7CCC7)C6)c5)nc4c3Cl)cc2[nH]1 (stereo not shown) [Compound 244]	6.40 to 7.00	7.00 to 7.70	≤ 6.40	7.00 to 7.70
Cc1nc2ccc(Oc3ccc4ncc(-c5cnn(CC6COCCN6C)c5)nc4c3Cl)cc2[nH]1 (stereo not shown) [Compound 245]	7.00 to 7.70	7.00 to 7.70	≤ 6.40	7.00 to 7.70
Cc1nc2ccc(Oc3ccc4ncc(-c5cnn(CC6COCCN6)c5)nc4c3Cl)cc2[nH]1 (stereo not shown) [Compound 246]	7.00 to 7.70	7.00 to 7.70	≤ 6.40	7.00 to 7.70
Cc1nc2cc(Oc3ccc4ncc(-c5cnn(CC6(O)CCN(C7COC7)CC6)c5)nc4c3Cl)ccc2[nH]1 [Compound 248]	7.00 to 7.70	7.00 to 7.70	6.40 to 7.00	7.00 to 7.70
Cc1nc2ccc(Oc3ccc4ncc(-c5cnn(C6CCNC(C)(C)C6)c5)nc4c3Cl)cc2[nH]1 (stereo not shown) [Compound 249]	7.00 to 7.70	7.00 to 7.70	≤ 6.40	7.00 to 7.70
Cc1nc2ccc(Oc3ccc4ncc(-c5cnn(CCN6CC(F)(F)C6)c5)nc4c3Cl)cc2[nH]1 [Compound 251]	7.00 to 7.70	7.00 to 7.70	≤ 6.40	7.00 to 7.70
Cc1nc2ccc(Oc3ccc4ncc(-c5cnn(C6CN(CC#N)C6)c5)nc4c3Cl)cc2[nH]1 [Compound 254]	7.00 to 7.70	7.00 to 7.70	≤ 6.40	7.00 to 7.70
Cc1nc2ccc(Oc3ccc4ncc(-c5cnn(C(C)(C)CC#N)c5)nc4c3Cl)cc2[nH]1 [Compound 255]	7.00 to 7.70	7.00 to 7.70	≤ 6.40	7.00 to 7.70
Cc1nc2ccc(Oc3ccc4ncc(-c5cnn(C6CC7(CNC7)C6)c5)nc4c3Cl)cc2[nH]1 [Compound 256]	6.40 to 7.00	6.40 to 7.00	≤ 6.40	6.40 to 7.00
Cc1nc2ccc(Oc3ccc4ncc(-c5cnn([C@H]6CCN(CC(F)(F)F)C[C@@H]6F)c5)nc4c3Cl)cc2[nH]1 [Compound 262]	7.00 to 7.70	6.40 to 7.00	≤ 6.40	7.00 to 7.70
Cc1nc2ccc(Oc3ccc4ncc(-c5cn(C6CCNCC6)nc5C)nc4c3Cl)cc2[nH]1 [Compound 264]	7.00 to 7.70	7.00 to 7.70	6.40 to 7.00	7.00 to 7.70
Cc1nc2ccc(Oc3ccc4ncc(-c5cnn(C6CC(N7CC(F)(F)C7)C6)c5)nc4c3Cl)cc2[nH]1 (stereo not shown) [Compound 265]	7.00 to 7.70	7.00 to 7.70	6.40 to 7.00	7.00 to 7.70
Cc1nc2cc(Oc3ccc4ncc(-c5cnn(CC6CC(F)(F)C6)c5)nc4c3Cl)cc(F)c2[nH]1 [Compound 266]	6.40 to 7.00	6.40 to 7.00	≤ 6.40	6.40 to 7.00
Cc1nc2ccc(Oc3ccc4ncc(-c5cnn(CCN6CCC(O)C6)c5)nc4c3Cl)cc2[nH]1 (stereo not shown) [Compound 267]	7.00 to 7.70	7.00 to 7.70	≤ 6.40	7.00 to 7.70
Cc1nc2ccc(Oc3ccc4ncc(-c5cnn(CCO)c5)nc4c3Cl)c(F)c2[nH]1 [Compound 268]	7.00 to 7.70	7.00 to 7.70	≤ 6.40	7.00 to 7.70
Cc1nc2ccc(Oc3ccc4ncc(-c5cnn(CC6CN(C)CCO6)c5)nc4c3Cl)cc2[nH]1 (stereo not shown) [Compound 271]	7.00 to 7.70	7.00 to 7.70	≤ 6.40	> 7.70
Cc1nc2ccc(Oc3ccc4ncc(-c5cnn(CC(C)(C)C#N)c5)nc4c3Cl)cc2[nH]1 [Compound 272]	7.00 to 7.70	7.00 to 7.70	≤ 6.40	7.00 to 7.70
Cc1nc2ccc(Oc3ccc4ncc(-c5cnn(CC6CC(F)(F)C6)c5C)nc4c3Cl)cc2[nH]1 [Compound 275]	≤ 6.40	6.40 to 7.00	≤ 6.40	≤ 6.40
Cc1nc2ccc(Oc3ccc4ncc(-c5cn(CC6CC(F)(F)C6)nc5C)nc4c3Cl)cc2[nH]1 [Compound 276]	6.40 to 7.00	6.40 to 7.00	≤ 6.40	7.00 to 7.70

The next lines start with results.

pIC50 [1]	Structure (SMILES)	pIC50 [2]	pIC50 [3]	pIC50 [4]
7.00 to 7.70	Cc1nc2ccc(Oc3ccc4ncc(-c5cnn(CC6CC(F)(F)C6)c5)nc4c3Br)cc2[nH]1 [Compound 243]	7.00 to 7.70	≤ 6.40	7.00 to 7.70
7.00 to 7.70	Cc1nc2cc(F)c(Oc3ccc4ncc(-c5cnn(CCO)c5)nc4c3Cl)cc2[nH]1 [Compound 247]	7.00 to 7.70	≤ 6.40	7.00 to 7.70
> 7.70	Cc1nc2ccc(Oc3ccc4ncc(-c5cnn(C6CC(C)(O)C6)c5)nc4c3Cl)cc2[nH]1 (stereo not shown) [Compound 250]	7.00 to 7.70	≤ 6.40	> 7.70
7.00 to 7.70	Cc1nc2ccc(Oc3ccc4ncc(-c5cnn(CCN6CCC(F)(F)C6)c5)nc4c3Cl)cc2[nH]1 [Compound 252]	7.00 to 7.70	≤ 6.40	7.00 to 7.70
6.40 to 7.00	Cc1nc2ccc(Oc3ccc4ncc(-c5cnn(CC6(F)CC6)c5)nc4c3Cl)cc2[nH]1 [Compound 253]	6.40 to 7.00	≤ 6.40	6.40 to 7.00
> 7.70	Cc1nc2ccc(Oc3ccc4ncc(-c5cnn(CC6CC(C)(O)C6)c5)nc4c3Cl)cc2[nH]1 (stereo not shown) [Compound 257]	7.00 to 7.70	6.40 to 7.00	> 7.70
7.00 to 7.70	Cc1nc2ccc(Oc3ccc4ncc(-c5cnn(C6CC(O)C6)c5)nc4c3Cl)cc2[nH]1 (stereo not shown) [Compound 258]	7.00 to 7.70	≤ 6.40	7.00 to 7.70
7.00 to 7.70	Cc1nc2ccc(Oc3ccc4ncc(-c5cnn(CC6(O)CC6)c5)nc4c3Cl)cc2[nH]1 [Compound 259]	7.00 to 7.70	≤ 6.40	7.00 to 7.70
7.00 to 7.70	COC1CCN(CCn2cc(-c3cnc4ccc(Oc5ccc6nc(C)[nH]c6c5)c(Cl)c4n3)cn2)C1 (stereo not shown) [Compound 260]	7.00 to 7.70	6.40 to 7.00	7.00 to 7.70
6.40 to 7.00	Cc1nc2ccc(Oc3ccc4ncc(-c5cnn(C6CCNCC6)c5C)nc4c3Cl)cc2[nH]1 [Compound 263]	6.40 to 7.00	≤ 6.40	6.40 to 7.00
≤ 6.40	Cc1nc2ccc(Oc3ccc4ncc(-c5cnn(CC(=O)O)c5)nc4c3Cl)cc2[nH]1 [Compound 269]	≤ 6.40	≤ 6.40	≤ 6.40
6.40 to 7.00	Cc1nc2ccc(Oc3ccc4ncc(-c5cnn(CC(=O)N6CCS(=O)(=O)CC6)c5)nc4c3Cl)cc2[nH]1 [Compound 270]	≤ 6.40	≤ 6.40	7.00 to 7.70
7.00 to 7.70	Cc1nc2ccc(Oc3ccc4ncc(-c5cnn(CC6CNCCO6)c5)nc4c3Cl)cc2[nH]1 (stereo not shown) [Compound 273]	7.00 to 7.70	≤ 6.40	7.00 to 7.70
7.00 to 7.70	Cc1nc2ccc(Oc3ccc4ncc(-c5cnn(CC(C)(C)C(N)=O)c5)nc4c3Cl)cc2[nH]1 [Compound 274]	7.00 to 7.70	≤ 6.40	7.00 to 7.70
7.00 to 7.70	COC1CCN(C(=O)Cn2cc(-c3cnc4ccc(Oc5ccc6nc(C)[nH]c6c5)c(Cl)c4n3)cn2)C1 (stereo not shown) [Compound 277]	6.40 to 7.00	≤ 6.40	7.00 to 7.70

Source: US20240368181A1, “QUINOXALINE DERIVATIVES AND USES THEREOF” (Black Diamond Therapeutics, Inc., priority 2021, published 2024)
